Read-outs that look alike come from different tables or passages of the source.
Assays:
[1] = test system: parental Escherichia coli K-12 MG 1655
Protocol: Subsequently, the genotype of around 1000 resistant mutants was determined by High-Throughput (HT) SMRT sequencing.

[2] = test system: E. coli K-12 MG1655; conditions: L28R
Protocol: As a measure of the effect of each individual genotype, relative IC75 values for each of the corresponding mutants were determined and compared to the IC75 of the wild-type.

[3] = test system: E. coli K-12 MG1655; assay type: cell-based, Escherichia coli; conditions: ciprofloxacin two-fold higher than wild-type MIC, LB agar
Protocol: All four constituents were mutagenized along the full lengths of their corresponding protein-coding DNA regions in their native genomic context. Accordingly, a single round of rMAGE mutagenesis was performed in E. coli K-12 MG1655, using SEQ ID NO:37-SEQ ID NO:167.
However, ciprofloxacin also has lower binding affinity to the homologous DNA topoisomerase IV complex (Khodursky, Zechiedrich, and Cozzarelli 1995). Therefore, mutagenesis at the target sites was assayed by a ciprofloxacin frequency-of-resistance assay.

[4] = test system: Saccharomyces cerevisiae BY4741 URA3+; test: 5-FOA resistance frequency after URA3 mutagenesis; assay type: cell-based; conditions: one cycle of URA3 soft-randomized oligo pool mutagenesis; 5-FOA SD agar plates
Text: To perform mutagenesis without necessitating additional genomic modifications and thus keeping the flexibility of the prokaryotic, pORTMAGE-based approach, the wild-type yeast homologous recombination system was employed to set-up overlapping, soft-randomized oligo pool-mediated mutagenesis. As the target, the endogenous URA3 gene in Saccharomyces cerevisiae BY4741 URA3+(SEQ ID NO:221), encoding orotidine 5-phosphate decarboxylase was chosen. Loss-of-function URA3 mutants can be readily selected based on their 5-Fluoroorotic Acid (5-FOA)-resistant phenotype on 5-FOA containing agar plates (DiCarlo et al. 2013). Therefore, mutagenesis was assayed as the fraction of resistant cells towards 5-FOA in diversified cell populations compared with the frequency of an unmutagenized control. Using 11 overlapping spiked oligo pools (SEQ ID NO:200-SEQ ID NO:210), a single overlapping, soft-randomized oligo pool-mediated mutagenesis cycle was performed.
Specifically, overlapping, soft-randomized oligos for S. cerevisiae URA3 were designed to target the non-coding strand of URA3 (YEL021W, SEQ ID NO:221). Spiked oligonucleotides were synthesized as described in Example 1. Yeast-mutagenesis was performed by delivering oligonucleotides to S. cerevisiae BY4741 URA3+ cells by electroporation. […] As the next step, URA3 mutagenesis was assessed by measuring 5-fluoroorotic acid (5-FOA) resistance frequency. […]

## COc1cc(Cc2cnc(N)nc2N)cc(OC)c1OC [Trimethoprim, trimethoprim]
[1]
  growth on trimethoprim solid media: cannot grow
[2]; strain E. coli MG1655 1, folA C-58T, A26T, P39R
  Trimethoprim IC75 value: 1162 µg/mL
[2]; strain E. coli MG1655 2, folA C-58T, A26T, P39R
  Trimethoprim IC75 value: 1162 µg/mL
[2]; strain E. coli MG1655 3, folA C-58T, A26T, P39R
  Trimethoprim IC75 value: 1346 µg/mL
[2]; strain E. coli MG1655 4, folA C-58T, A26T, P39R
  Trimethoprim IC75 value: 1254 µg/mL
[2]; strain E. coli MG1655 5, folA C-58T, A26T, P39R
  Trimethoprim IC75 value: 1162 µg/mL
[2]; strain E. coli MG1655 6, folA C-58T, A26T, P39R
  Trimethoprim IC75 value: 1254 µg/mL
[2]; strain E. coli MG1655 7, folA C-58T
  Trimethoprim IC75 value: 448 µg/mL
[2]; strain E. coli MG1655 8, folA C-58T, T-74A, N147D
  Trimethoprim IC75 value: 448 µg/mL
[2]; strain E. coli MG1655 9, folA C-58T
  Trimethoprim IC75 value: 610 µg/mL
[2]; strain E. coli MG1655 10, folA C-58T
  Trimethoprim IC75 value: 610 µg/mL
[2]; strain E. coli MG1655 11, folA C-58T
  Trimethoprim IC75 value: 518 µg/mL
[2]; strain E. coli MG1655 12, folA C-43T, C-58T, A26D, H45R
  Trimethoprim IC75 value: 794 µg/mL

## O=C(O)c1cn(C2CC2)c2cc(N3CCNCC3)c(F)cc2c1=O [ciprofloxacin]
[3]; cell population mutagenized at gyrA, gyrB, parC, parE
  frequency of ciprofloxacin resistant variants: 10^−4
[3]; non-mutagenised control cell populations
  frequency of ciprofloxacin resistant variants: 1.83*10^−7

## O=C(O)c1[nH]c(=O)[nH]c(=O)c1F [5-FOA, 5-Fluoroorotic Acid]
[4]
  upregulation of the fraction of 5-FOA resistant cells compared to background level: 77 fold

Reference: patent US10669537B2, “Mutagenizing intracellular nucleic acids” (priority 2016, dated 2020)
